Assay results from US12258328B2, “6-membered heteroaryl-containing aminopyridine compounds as EGFR inhibitors” (YUHAN CORPORATION, priority 2021, dated 2025).
Where two headings read alike, the source gives them in different places.

What was measured:
EGFR del19/T790M/C797S = EGFR del19/T790M/C797S (Homo sapiens, UniProt P00533, C797S/DEL746-750/T790M); test: Biochemical EGFR kinase assay (Lance Ultra TR-FRET), triple mutant del19/T790M/C797S
Summary of the method: (§1)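 In this biochemical assay, phosphorylation after a one-hour room-temperature reaction was detected with europium-labelled anti-phosphopeptide antibody at 2 nM final concentration.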

EGFR L858R/T790M/C797S = EGFR L858R/T790M/C797S (Homo sapiens, UniProt P00533, C797S/L858R/T790M); test: Biochemical EGFR kinase assay (Lance Ultra TR-FRET), triple mutant L858R/T790M/C797S
Summary of the method: as §1

EGFR del19/C797S = EGFR del19/C797S (Homo sapiens, UniProt P00533, C797S/DEL746-750); test: Biochemical EGFR kinase assay (Lance Ultra TR-FRET), double mutant del19/C797S
Summary of the method: as §1

EGFR L858R/C797S = EGFR L858R/C797S (Homo sapiens, UniProt P00533, C797S/L858R); test: Biochemical EGFR kinase assay (Lance Ultra TR-FRET), double mutant L858R/C797S
Summary of the method: as §1

EGFR wildtype = EGFR wildtype (Homo sapiens, UniProt P00533); test: Biochemical EGFR kinase assay (Lance Ultra TR-FRET), wildtype
Summary of the method: as §1

[1] = IC50 del19/T790M/C797S (nM) 100 μM ATP, 100 μM ATP
[2] = Km ATP, read-out: IC50 del19/T790M/C797S (nM) Km ATP
[3] = IC50 L858R/T790M/C797S (nM) 100 μM ATP, 100 μM ATP
[4] = Km ATP, read-out: IC50 L858R/T790M/C797S (nM) Km ATP
[5] = IC50 del19/C797S (nM) 100 μM ATP, 100 μM ATP
[6] = Km ATP, read-out: IC50 del19/C797S (nM) Km ATP
[7] = IC50 L858R/C797S (nM) 100 μM ATP, 100 μM ATP
[8] = Km ATP, read-out: IC50 L858R/C797S (nM) Km ATP
[9] = IC50 WT (nM) 100 μM ATP, 100 μM ATP
[10] = Km ATP, read-out: IC50 WT (nM) Km ATP
[11] = ATP at Km, read-out: IC50 del19/T790M/C797S, Km ATP
[12] = IC50 del19/T790M/C797S, 100 μM ATP
[13] = ATP at Km, read-out: IC50 L858R/T790M/C797S, Km ATP
[14] = IC50 L858R/T790M/C797S, 100 μM ATP
[15] = ATP at Km, read-out: IC50 del19/C797S, Km ATP
[16] = ATP at Km, read-out: IC50 L858R/C797S, Km ATP
[17] = ATP at Km, read-out: IC50 WT, Km ATP

EGFR del19/T790M/C797S, sequence (P00533 with tags, fused parts or gaps DEL746-750/T790M/C797S): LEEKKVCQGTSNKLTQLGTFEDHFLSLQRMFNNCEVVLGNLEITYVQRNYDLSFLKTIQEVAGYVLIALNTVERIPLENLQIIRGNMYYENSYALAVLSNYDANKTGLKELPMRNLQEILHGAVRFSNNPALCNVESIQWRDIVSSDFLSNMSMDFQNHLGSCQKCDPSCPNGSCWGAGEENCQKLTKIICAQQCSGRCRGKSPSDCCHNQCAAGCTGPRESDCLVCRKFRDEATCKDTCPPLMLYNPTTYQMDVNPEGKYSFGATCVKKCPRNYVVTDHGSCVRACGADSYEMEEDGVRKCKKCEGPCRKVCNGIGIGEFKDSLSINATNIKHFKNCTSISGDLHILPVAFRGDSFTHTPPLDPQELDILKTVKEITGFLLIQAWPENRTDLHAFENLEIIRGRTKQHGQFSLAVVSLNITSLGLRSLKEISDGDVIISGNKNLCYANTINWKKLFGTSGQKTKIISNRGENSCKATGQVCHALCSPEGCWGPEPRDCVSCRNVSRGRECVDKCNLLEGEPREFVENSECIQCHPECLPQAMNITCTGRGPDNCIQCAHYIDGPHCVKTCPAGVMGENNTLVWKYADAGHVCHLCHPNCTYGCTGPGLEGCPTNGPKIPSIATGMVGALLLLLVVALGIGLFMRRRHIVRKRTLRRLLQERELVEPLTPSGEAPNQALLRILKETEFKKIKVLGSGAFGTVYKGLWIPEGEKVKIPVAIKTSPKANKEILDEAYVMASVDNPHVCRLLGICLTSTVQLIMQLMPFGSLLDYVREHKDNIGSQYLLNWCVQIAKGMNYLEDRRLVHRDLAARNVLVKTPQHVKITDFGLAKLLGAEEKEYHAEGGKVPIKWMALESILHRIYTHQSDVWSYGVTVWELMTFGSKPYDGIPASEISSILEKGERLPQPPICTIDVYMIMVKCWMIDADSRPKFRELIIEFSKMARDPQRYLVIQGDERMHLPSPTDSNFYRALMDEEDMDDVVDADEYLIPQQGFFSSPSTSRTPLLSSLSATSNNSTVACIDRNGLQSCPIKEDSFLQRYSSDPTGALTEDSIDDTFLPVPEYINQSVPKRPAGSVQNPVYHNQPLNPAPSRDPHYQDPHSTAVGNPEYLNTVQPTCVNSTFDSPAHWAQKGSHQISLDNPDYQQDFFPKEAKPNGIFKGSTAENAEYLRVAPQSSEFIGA
EGFR wildtype, sequence (P00533 25-1210): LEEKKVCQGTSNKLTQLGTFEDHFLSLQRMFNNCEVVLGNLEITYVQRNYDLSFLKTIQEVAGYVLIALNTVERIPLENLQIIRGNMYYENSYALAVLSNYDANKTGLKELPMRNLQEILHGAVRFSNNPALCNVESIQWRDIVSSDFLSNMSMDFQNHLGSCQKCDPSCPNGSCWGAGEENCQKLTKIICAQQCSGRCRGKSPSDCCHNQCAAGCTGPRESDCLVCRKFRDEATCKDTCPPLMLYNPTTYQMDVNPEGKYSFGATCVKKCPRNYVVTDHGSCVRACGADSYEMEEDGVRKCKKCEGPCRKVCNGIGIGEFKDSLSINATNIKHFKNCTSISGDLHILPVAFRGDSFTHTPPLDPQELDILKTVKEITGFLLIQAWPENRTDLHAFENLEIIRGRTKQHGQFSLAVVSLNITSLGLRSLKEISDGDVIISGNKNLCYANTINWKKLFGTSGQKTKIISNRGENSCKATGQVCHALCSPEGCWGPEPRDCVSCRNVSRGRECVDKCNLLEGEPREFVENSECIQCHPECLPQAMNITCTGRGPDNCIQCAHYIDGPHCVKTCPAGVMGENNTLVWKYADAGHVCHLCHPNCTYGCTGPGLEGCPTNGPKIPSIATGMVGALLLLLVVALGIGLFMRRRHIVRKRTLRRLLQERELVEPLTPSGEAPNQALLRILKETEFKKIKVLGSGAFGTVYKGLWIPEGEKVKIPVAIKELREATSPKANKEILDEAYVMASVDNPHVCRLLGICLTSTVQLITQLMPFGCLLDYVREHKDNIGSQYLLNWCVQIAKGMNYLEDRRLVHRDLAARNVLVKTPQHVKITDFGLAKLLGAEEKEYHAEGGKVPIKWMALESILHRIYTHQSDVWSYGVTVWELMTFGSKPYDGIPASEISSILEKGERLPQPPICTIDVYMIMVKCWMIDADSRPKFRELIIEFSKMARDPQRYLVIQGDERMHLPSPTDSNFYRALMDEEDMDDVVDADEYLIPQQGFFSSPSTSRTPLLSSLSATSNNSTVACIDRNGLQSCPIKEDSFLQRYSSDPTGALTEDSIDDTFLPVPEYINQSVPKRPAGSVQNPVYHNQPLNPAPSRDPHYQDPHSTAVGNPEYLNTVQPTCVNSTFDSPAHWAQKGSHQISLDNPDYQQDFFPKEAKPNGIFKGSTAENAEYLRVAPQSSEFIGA
EGFR L858R/C797S, sequence (P00533 25-1210 C797S/L858R): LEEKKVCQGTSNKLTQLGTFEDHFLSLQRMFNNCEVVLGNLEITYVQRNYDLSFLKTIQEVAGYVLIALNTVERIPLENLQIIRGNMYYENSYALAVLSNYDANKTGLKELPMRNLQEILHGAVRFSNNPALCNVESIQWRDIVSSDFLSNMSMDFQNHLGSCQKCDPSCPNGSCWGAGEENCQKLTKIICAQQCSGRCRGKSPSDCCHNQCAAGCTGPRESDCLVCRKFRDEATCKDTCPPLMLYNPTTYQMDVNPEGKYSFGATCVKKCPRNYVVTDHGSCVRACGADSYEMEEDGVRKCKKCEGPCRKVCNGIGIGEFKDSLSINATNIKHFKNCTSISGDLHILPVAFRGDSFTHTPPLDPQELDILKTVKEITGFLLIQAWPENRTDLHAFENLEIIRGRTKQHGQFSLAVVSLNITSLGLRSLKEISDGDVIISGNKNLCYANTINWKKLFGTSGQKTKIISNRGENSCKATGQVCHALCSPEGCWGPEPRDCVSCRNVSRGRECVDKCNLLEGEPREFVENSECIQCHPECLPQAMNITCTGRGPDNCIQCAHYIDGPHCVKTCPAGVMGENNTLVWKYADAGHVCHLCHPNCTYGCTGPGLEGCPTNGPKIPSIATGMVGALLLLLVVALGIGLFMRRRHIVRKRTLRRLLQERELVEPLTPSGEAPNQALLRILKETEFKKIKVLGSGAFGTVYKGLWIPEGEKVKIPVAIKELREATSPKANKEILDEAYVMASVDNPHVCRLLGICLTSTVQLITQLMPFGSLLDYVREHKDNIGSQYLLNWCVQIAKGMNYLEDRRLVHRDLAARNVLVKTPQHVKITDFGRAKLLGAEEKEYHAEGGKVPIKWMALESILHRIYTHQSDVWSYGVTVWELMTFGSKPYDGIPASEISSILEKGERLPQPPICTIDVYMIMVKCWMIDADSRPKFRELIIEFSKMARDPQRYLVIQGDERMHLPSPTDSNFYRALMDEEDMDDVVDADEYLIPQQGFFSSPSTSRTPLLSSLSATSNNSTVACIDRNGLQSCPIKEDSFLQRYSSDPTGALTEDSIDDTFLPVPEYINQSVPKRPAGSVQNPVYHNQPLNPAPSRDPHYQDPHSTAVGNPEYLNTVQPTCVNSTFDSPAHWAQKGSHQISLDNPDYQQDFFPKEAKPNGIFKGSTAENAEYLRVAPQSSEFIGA
EGFR del19/C797S, sequence (P00533 with tags, fused parts or gaps DEL746-750/C797S): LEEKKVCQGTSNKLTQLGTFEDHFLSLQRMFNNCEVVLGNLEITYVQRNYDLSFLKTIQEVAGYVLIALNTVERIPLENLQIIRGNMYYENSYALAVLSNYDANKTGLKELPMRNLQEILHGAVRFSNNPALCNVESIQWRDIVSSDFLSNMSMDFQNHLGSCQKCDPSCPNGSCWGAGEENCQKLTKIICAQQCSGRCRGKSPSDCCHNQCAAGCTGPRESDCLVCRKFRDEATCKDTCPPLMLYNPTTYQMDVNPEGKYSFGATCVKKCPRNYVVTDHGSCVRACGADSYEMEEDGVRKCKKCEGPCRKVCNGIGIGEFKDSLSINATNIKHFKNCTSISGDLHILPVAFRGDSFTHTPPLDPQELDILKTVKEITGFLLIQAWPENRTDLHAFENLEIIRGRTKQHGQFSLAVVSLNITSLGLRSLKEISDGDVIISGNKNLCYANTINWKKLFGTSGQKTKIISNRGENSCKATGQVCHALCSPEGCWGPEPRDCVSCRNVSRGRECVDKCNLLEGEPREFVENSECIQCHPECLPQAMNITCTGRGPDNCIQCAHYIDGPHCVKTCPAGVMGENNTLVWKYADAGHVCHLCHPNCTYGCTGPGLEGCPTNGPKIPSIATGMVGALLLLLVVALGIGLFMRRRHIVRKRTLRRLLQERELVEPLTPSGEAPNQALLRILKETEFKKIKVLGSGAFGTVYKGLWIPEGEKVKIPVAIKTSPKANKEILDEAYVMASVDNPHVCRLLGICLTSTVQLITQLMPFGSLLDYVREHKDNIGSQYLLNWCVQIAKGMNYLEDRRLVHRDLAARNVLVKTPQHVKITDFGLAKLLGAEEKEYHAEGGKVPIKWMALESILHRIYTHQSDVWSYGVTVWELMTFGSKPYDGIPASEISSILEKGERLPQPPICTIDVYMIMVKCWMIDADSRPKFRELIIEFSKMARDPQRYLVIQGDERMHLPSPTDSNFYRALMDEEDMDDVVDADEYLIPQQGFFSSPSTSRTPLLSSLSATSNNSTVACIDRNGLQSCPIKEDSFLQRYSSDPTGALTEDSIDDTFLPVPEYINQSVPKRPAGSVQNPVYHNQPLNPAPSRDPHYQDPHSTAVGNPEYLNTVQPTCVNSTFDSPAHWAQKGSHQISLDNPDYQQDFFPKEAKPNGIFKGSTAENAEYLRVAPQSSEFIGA

SMILES | IC50 (EGFR del19/T790M/C797S; [1]) | IC50 (EGFR del19/T790M/C797S; [2]) | IC50 (EGFR L858R/T790M/C797S; [3]) | IC50 (EGFR L858R/T790M/C797S; [4]) | IC50 (EGFR del19/C797S; [5]) | IC50 (EGFR del19/C797S; [6]) | IC50 (EGFR L858R/C797S; [7]) | IC50 (EGFR L858R/C797S; [8]) | IC50 (EGFR wildtype; [9]) | IC50 (EGFR wildtype; [10]) | IC50 (EGFR del19/T790M/C797S; [11]) | IC50 (EGFR del19/T790M/C797S; [12]) | IC50 (EGFR L858R/T790M/C797S; [13]) | IC50 (EGFR L858R/T790M/C797S; [14]) | IC50 (EGFR del19/C797S; [15]) | IC50 (EGFR del19/C797S; IC50 del19/C797S, 100 μM ATP) | IC50 (EGFR L858R/C797S; [16]) | IC50 (EGFR L858R/C797S; IC50 L858R/C797S, 100 μM ATP) | IC50 (EGFR wildtype; [17]) | IC50 (EGFR wildtype; IC50 WT, 100 μM ATP)
CN(C)C[C@H]1CC[C@@H](Nc2cc(Nc3ccnc(-c4cnn(S(=O)(=O)C5CC5)c4)n3)ncc2-c2ccc(C(C)(C)O)nn2)CC1 [Example 89, 2-(6-(6-((2-(1-(Cyclopropylsulfonyl)-1H-pyrazol-4-yl)pyrimidin-4-yl)amino)-4-(((1s,4s)-4-((dimethylamino)methyl)cyclohexyl)amino)pyridin-3-yl)pyridazin-3-yl)propan-2-ol] | 0.1 nM | 0.1 nM | 0.1 nM | 0.1 nM | 0.1 nM | 0.3 nM | 3.9 nM | 0.2 nM | 1640 nM | 2.7 nM |  |  |  |  |  |  |  |  |  | 
CC1(O)CCC(Nc2cc(Nc3ccnc(-c4cnn(S(=O)(=O)C5CC5)c4)n3)ncc2-c2cnc(OC3CCOC3)cn2)CC1 (stereo not shown) [Example 149, (1s,4s)-4-((2-((2-(1-(Cyclopropylsulfonyl)-1H-pyrazol-4-yl)pyrimidin-4-yl)amino)-5-(5-((tetrahydrofuran-3-yl)oxy)pyrazin-2-yl)pyridin-4-yl)amino)-1-methylcyclohexan-1-ol] |  | 0.4 nM |  | 0.3 nM |  | 1 nM |  | 0.4 nM |  | 11.2 nM |  |  |  |  |  |  |  |  |  | 
CN1CCC(Oc2cnc(-c3cnc(Nc4ccnc(-c5cnn(S(=O)(=O)C6CC6)c5)n4)cc3N[C@H]3CC[C@@H](CO)CC3)cn2)CC1 [Example 146, ((1s,4s)-4-((2-((2-(1-(Cyclopropylsulfonyl)-1H-pyrazol-4-yl)pyrimidin-4-yl)amino)-5-(5-((1-methylpiperidin-4-yl)oxy)pyrazin-2-yl)pyridin-4-yl)amino)cyclohexyl)methanol] |  | 0.1 nM |  | 0.02 nM |  | 0.3 nM |  | 0.1 nM |  | 0.8 nM |  |  |  |  |  |  |  |  |  | 
C[C@]1(O)CC[C@@H](Nc2cc(Nc3ccnc(-c4cnn(S(=O)(=O)C5CC5)c4)n3)ncc2-c2cc(NCCC(F)(F)F)ccn2)CC1 [Example 277, (1s,4s)-4-((6′-((2-(1-(Cyclopropylsulfonyl)-1H-pyrazol-4-yl)pyrimidin-4-yl)amino)-4-((3,3,3-trifluoropropyl)amino)-[2,3′-bipyridin]-4′-yl)amino)-1-methylcyclohexan-1-ol] |  |  |  |  |  |  |  |  |  |  | 4.4 nM | 4.7 nM | 1.6 nM |  | 0.9 nM | 3.9 nM | 2.2 nM | 11.2 nM | 9.8 nM | > 10000 nM
CC1(O)CCC(Nc2cc(Nc3ccnc(-c4cnn(S(=O)(=O)C5CC5)c4)n3)ncc2-c2cc(S(C)(=O)=O)ccn2)CC1 (stereo not shown) [Example 198, (1s,4s)-4-((6′-((2-(1-(Cyclopropylsulfonyl)-1H-pyrazol-4-yl)pyrimidin-4-yl)amino)-4-(methylsulfonyl)-[2,3′-bipyridin]-4′-yl)amino)-1-methylcyclohexan-1-ol] |  |  |  |  |  |  |  |  |  |  | 0.5 nM | 0.8 nM | 0.2 nM | 0.4 nM | 0.7 nM | 2.9 nM | 0.8 nM | 2.9 nM | 3.7 nM | > 10000 nM
CC(C)(O)[C@H]1CC[C@@H](Nc2cc(Nc3ccnc(-c4cnn(S(=O)(=O)C5CC5)c4)n3)ncc2-c2cccc(CC(F)(F)F)n2)CC1 [Example 247, 2-((1s,4s)-4-((6′-((2-(1-(Cyclopropylsulfonyl)-1H-pyrazol-4-yl)pyrimidin-4-yl)amino)-6-(2,2,2-trifluoroethyl)-[2,3′-bipyridin]-4′-yl)amino)cyclohexyl)propan-2-ol] |  |  |  |  |  |  |  |  |  |  |  | 14.7 nM |  | 2.6 nM |  | 80.6 nM |  | 51.1 nM | 111 nM | > 10000 nM

Second part, the molecule after the results:

IC50 (EGFR del19/T790M/C797S; [1]) | IC50 (EGFR del19/T790M/C797S; [2]) | IC50 (EGFR L858R/T790M/C797S; [3]) | IC50 (EGFR L858R/T790M/C797S; [4]) | IC50 (EGFR del19/C797S; [5]) | IC50 (EGFR del19/C797S; [6]) | IC50 (EGFR L858R/C797S; [7]) | IC50 (EGFR L858R/C797S; [8]) | IC50 (EGFR wildtype; [9]) | IC50 (EGFR wildtype; [10]) | IC50 (EGFR del19/T790M/C797S; [11]) | IC50 (EGFR del19/T790M/C797S; [12]) | IC50 (EGFR L858R/T790M/C797S; [13]) | IC50 (EGFR L858R/T790M/C797S; [14]) | IC50 (EGFR del19/C797S; [15]) | IC50 (EGFR del19/C797S; IC50 del19/C797S, 100 μM ATP) | IC50 (EGFR L858R/C797S; [16]) | IC50 (EGFR L858R/C797S; IC50 L858R/C797S, 100 μM ATP) | IC50 (EGFR wildtype; [17]) | IC50 (EGFR wildtype; IC50 WT, 100 μM ATP) | SMILES
11.2 nM | 8.5 nM | 4.5 nM | 2.8 nM | 29.9 nM | 27.1 nM | 33.7 nM | 15.7 nM | 653 nM | 46.8 nM |  |  |  |  |  |  |  |  |  |  | CC(C)(O)[C@H]1CC[C@@H](Nc2cc(Nc3ccnc(-c4cnn(S(=O)(=O)C5CC5)c4)n3)ncc2-c2cc(CN3CCC(F)(F)CC3)ccn2)CC1 [Example 114, 2-((1s,4s)-4-((6′-((2-(1-(Cyclopropylsulfonyl)-1H-pyrazol-4-yl)pyrimidin-4-yl)amino)-4-((4,4-difluoropiperidin-1-yl)methyl)-[2,3′-bipyridin]-4′-yl)amino)cyclohexyl)propan-2-ol]
 |  |  |  |  |  |  |  |  |  | 0.1 nM | 0.2 nM | 0.1 nM | 0.2 nM | 0.2 nM | 0.3 nM | 0.1 nM | 0.6 nM | 0.3 nM | 243 nM | CN(C)CCOc1ccc(-c2cnc(Nc3ccnc(-c4cnn(S(=O)(=O)C5CC5)c4)n3)cc2N[C@H]2CC[C@@](C)(O)CC2)nc1 [Example 208, (1s,4s)-4-((6′-((2-(1-(Cyclopropylsulfonyl)-1H-pyrazol-4-yl)pyrimidin-4-yl)amino)-5-(2-(dimethylamino)ethoxy)-[2,3′-bipyridin]-4′-yl)amino)-1-methylcyclohexan-1-ol]
 |  |  |  |  |  |  |  |  |  |  | 1.4 nM |  | 0.8 nM | 2.2 nM | 1.7 nM | 0.9 nM | 7.9 nM | 6.9 nM | 1770 nM | CN1CCN(S(=O)(=O)c2ccc(-c3cnc(Nc4ccnc(-c5cnn(S(=O)(=O)C6CC6)c5)n4)cc3N[C@H]3CC[C@@H](CO)CC3)nc2)CC1 [Example 189, ((1s,4s)-4-((6′-((2-(1-(Cyclopropylsulfonyl)-1H-pyrazol-4-yl)pyrimidin-4-yl)amino)-5-((4-methylpiperazin-1-yl)sulfonyl)-[2,3′-bipyridin]-4′-yl)amino)cyclohexyl)methanol]
0.1 nM |  | 0.2 nM | 0.1 nM | 0.4 nM | 0.2 nM | 2.1 nM | 0.4 nM | 586 nM | 1.4 nM |  |  |  |  |  |  |  |  |  |  | CN1CCN(Cc2ccc(-c3cnc(Nc4ccnc(-c5cnn(S(=O)(=O)C6CC6)c5)n4)cc3N[C@H]3CC[C@](O)(CO)CC3)nc2)CC1 [Example 11, (1s,4s)-4-((6′-((2-(1-(Cyclopropylsulfonyl)-1H-pyrazol-4-yl)pyrimidin-4-yl)amino)-5-((4-methylpiperazin-1-yl)methyl)-[2,3′-bipyridin]-4′-yl)amino)-1-(hydroxymethyl)cyclohexan-1-ol]
0.6 nM | 0.7 nM | 0.3 nM | 0.2 nM | 0.2 nM | 0.2 nM | 0.4 nM | 0.1 nM | 24.9 nM | 0.2 nM |  |  |  |  |  |  |  |  |  |  | CN1CCN(c2ccc(-c3cnc(Nc4ccnc(-c5cnn(S(=O)(=O)C6CC6)c5)n4)cc3N[C@H]3CC[C@@](C)(O)CC3)nc2)CC1 [Example 83, (1s,4s)-4-((6′-((2-(1-(Cyclopropylsulfonyl)-1H-pyrazol-4-yl)pyrimidin-4-yl)amino)-5-(4-methylpiperazin-1-yl)-[2,3′-bipyridin]-4′-yl)amino)-1-methylcyclohexan-1-ol]
 |  |  |  |  |  |  |  |  |  |  | 2.7 nM |  | 3.5 nM |  | 45.8 nM |  | 52.2 nM |  | > 10000 nM | CN(C)c1ccnc(-c2cnc(Nc3ccnc(-c4cnn(S(=O)(=O)C5CC5)c4)n3)cc2N[C@H]2CC[C@@](C)(O)CC2)c1 [Example 167, (1s,4s)-4-((6′-((2-(1-(Cyclopropylsulfonyl)-1H-pyrazol-4-yl)pyrimidin-4-yl)amino)-4-(dimethylamino)-[2,3′-bipyridin]-4′-yl)amino)-1-methylcyclohexan-1-ol]
 |  |  |  |  |  |  |  |  |  | 0.4 nM | 0.3 nM | 0.2 nM | 0.2 nM | 0.2 nM | 0.4 nM | 0.2 nM | 0.5 nM |  | 92.2 nM | CC(C)(O)c1ccc(-c2cnc(Nc3ccnc(-c4cnn(S(=O)(=O)C5CC5)c4)n3)cc2N[C@H]2CC[C@@](C)(O)CC2)nc1 [Example 168, (1s,4s)-4-((6′-((2-(1-(Cyclopropylsulfonyl)-1H-pyrazol-4-yl)pyrimidin-4-yl)amino)-5-(2-hydroxypropan-2-yl)-[2,3′-bipyridin]-4′-yl)amino)-1-methylcyclohexan-1-ol]
